According to ChEMBL document CHEMBL1201862, “PubChem BioAssay data set” (2004):
Counter-ions that a name gives are not always drawn. Each block holds one compound with its values, some of them ahead of it. Activity calls are given as the source filed them.

Experiments:
[1] = target: Voltage-gated inwardly rectifying potassium channel KCNH2 (Homo sapiens, UniProt Q12809); details: Potency;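 further: confirmatory quantitative high-throughput screen measuring inhibition of hERG channel activity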
[2] = target: T1, Estrogen receptor (Homo sapiens, UniProt P03372);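 further: potency for inhibiting coactivator peptide recruitment to the receptor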
T1 sequence (P03372 whole entry): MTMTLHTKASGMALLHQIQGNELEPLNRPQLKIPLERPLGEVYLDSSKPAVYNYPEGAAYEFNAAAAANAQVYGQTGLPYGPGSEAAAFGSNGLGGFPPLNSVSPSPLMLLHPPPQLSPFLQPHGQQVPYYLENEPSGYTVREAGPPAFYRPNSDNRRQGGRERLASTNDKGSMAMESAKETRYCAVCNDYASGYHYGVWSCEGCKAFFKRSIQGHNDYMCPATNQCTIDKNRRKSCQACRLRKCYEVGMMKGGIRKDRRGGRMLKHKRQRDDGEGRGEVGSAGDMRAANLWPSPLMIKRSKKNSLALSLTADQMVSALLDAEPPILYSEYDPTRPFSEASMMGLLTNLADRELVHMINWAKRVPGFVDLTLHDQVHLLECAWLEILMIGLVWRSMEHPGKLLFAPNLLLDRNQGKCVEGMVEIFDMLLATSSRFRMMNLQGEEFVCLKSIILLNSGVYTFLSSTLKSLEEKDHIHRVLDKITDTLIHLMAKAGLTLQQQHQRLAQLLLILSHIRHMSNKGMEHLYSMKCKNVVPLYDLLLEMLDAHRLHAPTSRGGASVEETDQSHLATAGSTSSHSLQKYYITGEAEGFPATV

[3] = viability of PTEN-deleted HCT116 cells – cell-based, HCT116 PTEN knockout, dose response (AID 1047); assay type: functional;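 further: HCT116 colon tumor cells with PTEN knocked out; cells exposed to compound for 60 hours before readout; potency for loss of cell viability measured by luminescence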
[4] = viability of HCT116 lacking mutant beta-catenin – cell-based, human colon tumor, dose response (AID 1045); assay type: functional;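 further: HCT116 colon tumor cells with beta catenin knocked out; cells exposed to compound for 60 hours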
[5] = NIH3T3 cell viability loss – ATP luminescence, mouse fibroblasts, counter-screen, dose response (AID 2010); assay type: functional, cell-based;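 further: cells exposed to compound for about 90 hours before reading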
[6] = tested on: HeLa; assay: ATP-based viability loss in HeLa cells – cell-based, CellTiter-Glo luminescence, cherry-pick samples, cytotoxicity control for MITF activator project, dose response (AID 540259); assay type: functional; details: Homo sapiens
[7] = Trypanosoma cruzi growth suppression in host cells – NIH3T3 host cells, beta-gal luminescence, confirmation (AID 2044); assay type: functional, cell-based;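 further: intracellular parasites grown in NIH/3T3 mouse fibroblasts as host cells; luminescent beta-galactosidase reporter signal from transgenic T. cruzi replicating inside host cells; inhibitors lower the luminescence signal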
[8] = target: Genome polyprotein (dengue virus type 2, UniProt P29990); assay: flavivirus cap methylation enzyme inhibition – biochemical, confirmation dose response, primary screen (AID 588689); assay type: functional
Genome polyprotein, sequence (P29990 2492-3391 limits assumed): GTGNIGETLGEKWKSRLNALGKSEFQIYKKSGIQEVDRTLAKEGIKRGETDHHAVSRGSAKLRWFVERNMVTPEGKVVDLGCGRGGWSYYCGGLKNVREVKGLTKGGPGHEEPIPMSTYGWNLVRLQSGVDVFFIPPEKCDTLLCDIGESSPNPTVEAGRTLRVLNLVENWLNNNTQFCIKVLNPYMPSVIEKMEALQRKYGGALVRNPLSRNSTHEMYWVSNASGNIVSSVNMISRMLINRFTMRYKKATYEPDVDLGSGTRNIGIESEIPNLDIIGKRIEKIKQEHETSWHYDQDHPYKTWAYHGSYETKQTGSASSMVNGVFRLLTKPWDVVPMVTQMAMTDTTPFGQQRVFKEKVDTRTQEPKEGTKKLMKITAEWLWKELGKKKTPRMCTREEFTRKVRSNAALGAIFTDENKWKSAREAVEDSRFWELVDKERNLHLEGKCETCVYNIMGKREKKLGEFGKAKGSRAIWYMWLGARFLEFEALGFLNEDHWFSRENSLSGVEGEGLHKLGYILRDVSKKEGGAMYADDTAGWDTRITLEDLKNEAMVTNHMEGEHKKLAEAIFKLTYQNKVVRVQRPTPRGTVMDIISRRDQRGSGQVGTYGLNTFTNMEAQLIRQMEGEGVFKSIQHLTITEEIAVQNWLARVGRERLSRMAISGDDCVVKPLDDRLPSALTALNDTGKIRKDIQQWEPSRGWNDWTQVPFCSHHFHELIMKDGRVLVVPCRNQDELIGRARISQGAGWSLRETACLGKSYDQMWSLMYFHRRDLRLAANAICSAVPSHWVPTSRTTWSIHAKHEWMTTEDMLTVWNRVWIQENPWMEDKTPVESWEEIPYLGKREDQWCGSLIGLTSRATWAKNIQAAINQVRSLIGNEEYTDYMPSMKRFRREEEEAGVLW

[9] = target: T2, Heat shock factor protein 1 (Mus musculus, UniProt P38532); assay: enhancement of HSF1-driven luciferase signal – cell-based, NIH3T3, luminescence, dose retest, confirmation (AID 435004); assay type: functional;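 further: stress induced by proteasome inhibitor MG132 added 30 min after compound; luciferase reporter driven by HSF1 response element in NIH3T3 cells; actives raise luminescence as potentiators of the MG132 stress response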
T2 sequence (P38532 whole entry): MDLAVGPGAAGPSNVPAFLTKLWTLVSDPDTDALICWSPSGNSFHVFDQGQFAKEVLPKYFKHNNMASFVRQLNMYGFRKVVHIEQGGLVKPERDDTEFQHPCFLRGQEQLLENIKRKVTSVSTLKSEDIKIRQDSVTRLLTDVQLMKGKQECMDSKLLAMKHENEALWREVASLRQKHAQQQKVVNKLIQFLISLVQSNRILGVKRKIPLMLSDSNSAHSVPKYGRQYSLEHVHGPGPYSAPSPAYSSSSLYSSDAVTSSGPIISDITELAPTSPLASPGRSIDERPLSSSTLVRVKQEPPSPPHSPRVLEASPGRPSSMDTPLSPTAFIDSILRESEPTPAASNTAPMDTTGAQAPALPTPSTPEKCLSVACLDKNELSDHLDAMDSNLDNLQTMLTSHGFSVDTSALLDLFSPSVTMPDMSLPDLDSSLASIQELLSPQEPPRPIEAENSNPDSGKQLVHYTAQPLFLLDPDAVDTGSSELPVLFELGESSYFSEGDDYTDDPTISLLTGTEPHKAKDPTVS

[10] = target: T3, Apoptotic protease-activating factor 1 (Homo sapiens, UniProt O14727); assay type: functional
T3 sequence (O14727 whole entry): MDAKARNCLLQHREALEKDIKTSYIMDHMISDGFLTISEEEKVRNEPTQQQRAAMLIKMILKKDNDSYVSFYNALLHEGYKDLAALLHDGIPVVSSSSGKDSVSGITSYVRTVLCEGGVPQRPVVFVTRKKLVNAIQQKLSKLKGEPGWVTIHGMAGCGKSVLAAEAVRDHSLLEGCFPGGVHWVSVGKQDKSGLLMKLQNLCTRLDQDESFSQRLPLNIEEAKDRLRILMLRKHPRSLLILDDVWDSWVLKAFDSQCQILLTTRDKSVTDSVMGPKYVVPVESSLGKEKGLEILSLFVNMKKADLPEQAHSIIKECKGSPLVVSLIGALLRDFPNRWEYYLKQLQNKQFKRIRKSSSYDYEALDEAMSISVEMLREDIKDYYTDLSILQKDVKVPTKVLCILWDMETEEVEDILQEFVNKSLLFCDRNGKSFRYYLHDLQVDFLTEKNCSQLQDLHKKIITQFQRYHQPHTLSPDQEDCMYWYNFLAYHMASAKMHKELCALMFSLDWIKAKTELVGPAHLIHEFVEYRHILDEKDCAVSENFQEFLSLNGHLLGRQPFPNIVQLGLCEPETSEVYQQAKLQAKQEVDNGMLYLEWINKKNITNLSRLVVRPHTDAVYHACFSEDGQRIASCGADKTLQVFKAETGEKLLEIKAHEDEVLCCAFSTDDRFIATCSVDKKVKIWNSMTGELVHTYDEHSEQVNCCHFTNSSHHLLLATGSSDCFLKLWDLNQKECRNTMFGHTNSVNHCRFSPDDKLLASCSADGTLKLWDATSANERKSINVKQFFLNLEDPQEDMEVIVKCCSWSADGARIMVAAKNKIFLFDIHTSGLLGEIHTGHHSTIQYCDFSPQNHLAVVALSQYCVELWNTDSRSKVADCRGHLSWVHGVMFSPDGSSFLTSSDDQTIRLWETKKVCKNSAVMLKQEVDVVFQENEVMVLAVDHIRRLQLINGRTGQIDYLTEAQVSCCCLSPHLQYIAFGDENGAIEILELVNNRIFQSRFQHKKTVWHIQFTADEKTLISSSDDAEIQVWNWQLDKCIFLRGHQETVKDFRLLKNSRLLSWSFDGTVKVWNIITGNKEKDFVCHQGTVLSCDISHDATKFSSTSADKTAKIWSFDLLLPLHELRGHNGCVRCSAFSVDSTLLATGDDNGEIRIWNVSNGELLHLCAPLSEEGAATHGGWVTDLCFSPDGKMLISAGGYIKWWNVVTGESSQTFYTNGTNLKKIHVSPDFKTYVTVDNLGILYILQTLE

[11] = target: T4, Polyadenylate-binding protein 1 (Homo sapiens, UniProt P11940); assay: MLLE binding blockers, Cy5 peptide tracer – biochemical, fluorescence polarization, Cy5-PAM2 peptide, secondary, miRNA deadenylation inhibitor project, dose response (AID 602260); assay type: functional; details: read-out: IC50_Mean
T4 sequence (P11940 whole entry, the tested form may be a part): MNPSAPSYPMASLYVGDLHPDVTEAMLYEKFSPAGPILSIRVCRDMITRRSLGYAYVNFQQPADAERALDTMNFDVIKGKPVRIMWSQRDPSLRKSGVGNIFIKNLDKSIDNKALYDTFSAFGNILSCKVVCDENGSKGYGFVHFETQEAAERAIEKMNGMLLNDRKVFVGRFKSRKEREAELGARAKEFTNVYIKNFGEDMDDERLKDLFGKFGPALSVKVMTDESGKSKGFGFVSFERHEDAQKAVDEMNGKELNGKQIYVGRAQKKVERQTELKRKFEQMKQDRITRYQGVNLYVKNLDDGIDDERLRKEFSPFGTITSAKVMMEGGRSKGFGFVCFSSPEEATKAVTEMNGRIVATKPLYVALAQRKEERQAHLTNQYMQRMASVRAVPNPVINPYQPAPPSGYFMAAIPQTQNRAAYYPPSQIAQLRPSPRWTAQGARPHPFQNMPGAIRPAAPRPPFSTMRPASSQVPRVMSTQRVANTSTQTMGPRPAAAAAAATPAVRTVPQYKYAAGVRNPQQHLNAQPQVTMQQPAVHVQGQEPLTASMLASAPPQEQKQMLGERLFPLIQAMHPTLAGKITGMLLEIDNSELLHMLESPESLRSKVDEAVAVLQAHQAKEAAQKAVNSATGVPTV

[12] = target: T4, Polyadenylate-binding protein 1; assay: MLLE domain peptide-binding blockers, IC50 – biochemical, fluorescence polarization, FITC-PAM2 peptide, dose response (AID 602259); assay type: functional; details: read-out: IC50_Mean
[13] = DRD fibroblast viability loss – cell-based, non-viral oncogenic, luminescence, dose response (AID 1934); assay type: functional; details: Homo sapiens
[14] = tested on: BJ; assay: cells; assay type: functional, cell-based; details: Homo sapiens
[15] = tested on: BJ; assay: BJ-TERT-LT-ST fibroblast viability loss – cell-based, RAS-independent, luminescence, dose response (AID 1935); assay type: functional; details: Homo sapiens;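 further: BJ fibroblasts immortalized with TERT plus LT and ST oncogenes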
[16] = tested on: BJ; assay: BJ-TERT fibroblast viability loss – cell-based, RAS-independent, luminescence, dose response (AID 1933); assay type: functional; details: Homo sapiens
[17] = tested on: BJ; assay: growth inhibition of engineered Ras-driven BJ cells – cell-based, alamar blue fluorescence, cherrypicked samples, dose response (AID 2631); assay type: functional; details: Homo sapiens;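 further: confirmatory dose-response assay in RAS-dependent BJ fibroblasts engineered with TERT, LT and ST, with cytotoxicity read by fluorescence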

Voltage-gated inwardly rectifying potassium channel KCNH2, sequence (Q12809 whole entry): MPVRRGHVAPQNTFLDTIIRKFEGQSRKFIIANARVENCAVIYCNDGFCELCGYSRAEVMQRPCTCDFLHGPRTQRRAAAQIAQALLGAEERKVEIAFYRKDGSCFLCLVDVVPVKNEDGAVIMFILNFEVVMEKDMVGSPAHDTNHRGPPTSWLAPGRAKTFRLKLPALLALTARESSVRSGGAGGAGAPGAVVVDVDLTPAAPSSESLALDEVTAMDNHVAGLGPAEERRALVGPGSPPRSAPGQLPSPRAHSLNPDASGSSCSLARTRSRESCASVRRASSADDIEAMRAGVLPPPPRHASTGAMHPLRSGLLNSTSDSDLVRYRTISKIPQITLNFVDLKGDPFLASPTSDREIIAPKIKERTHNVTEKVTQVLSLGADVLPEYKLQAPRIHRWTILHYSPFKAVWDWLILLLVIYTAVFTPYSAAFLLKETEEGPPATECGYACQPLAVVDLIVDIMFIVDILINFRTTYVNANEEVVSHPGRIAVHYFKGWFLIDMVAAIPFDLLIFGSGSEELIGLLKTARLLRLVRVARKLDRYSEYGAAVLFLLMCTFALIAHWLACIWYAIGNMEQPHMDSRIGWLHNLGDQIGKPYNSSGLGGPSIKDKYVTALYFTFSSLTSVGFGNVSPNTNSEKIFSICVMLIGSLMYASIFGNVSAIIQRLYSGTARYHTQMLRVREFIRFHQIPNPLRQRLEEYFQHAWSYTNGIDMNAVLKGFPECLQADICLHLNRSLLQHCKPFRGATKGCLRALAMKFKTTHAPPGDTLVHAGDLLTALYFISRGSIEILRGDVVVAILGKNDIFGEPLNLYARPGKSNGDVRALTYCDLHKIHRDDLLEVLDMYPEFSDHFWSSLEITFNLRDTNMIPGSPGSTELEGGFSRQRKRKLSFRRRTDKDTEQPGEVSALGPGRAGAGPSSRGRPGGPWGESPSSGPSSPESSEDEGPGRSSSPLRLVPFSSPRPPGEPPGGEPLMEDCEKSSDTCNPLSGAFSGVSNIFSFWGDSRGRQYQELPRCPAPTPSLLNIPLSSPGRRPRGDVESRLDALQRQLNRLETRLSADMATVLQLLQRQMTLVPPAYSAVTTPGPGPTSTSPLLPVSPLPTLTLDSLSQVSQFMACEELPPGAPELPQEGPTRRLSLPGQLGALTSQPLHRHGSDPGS

SMILES: CCn1cnc2c(Nc3cccc(Cl)c3)nc(N[C@@H]3CCCC[C@@H]3N)nc21
AC50 [1]: 17.8 µM (inconclusive)

SMILES: C[C@H](N)CN1CCc2ccc(Br)cc21
AC50 [1]: 20 µM (inconclusive)

SMILES: CCOC(=O)C1OC1c1ccccc1 (centres undefined)
AC50 [1]: 35.5 µM (inconclusive)

SMILES: Cc1ccc2nc(O)c(-c3nc4ccccn4c3NCc3ccco3)cc2c1
IC50 [2]: 25.7 µM (active)
EC50 [3]: 18.7 µM (active)
EC50 [4]: 28.4 µM (active)

SMILES: Cc1ccc(Nc2cc(C)c3c(O)cccc3n2)cc1C
EC50 [5]: > 30 µM (not active)
AC50 [6]: 34.5 µM (active)
EC50 [7]: 2.81 µM (active)

SMILES: C1=C(c2cc3ccccc3cn2)CCCC1
AC50 [6]: 51.3 µM (active)

IC50 [8]: > 100 µM (active)
SMILES: CCCCC1=CC2=CC(=O)C(C)(OC(=O)CC)C(=O)C2=CN1Cc1ccc(OC)cc1 (centres undefined)

SMILES: CC(=O)c1ccc(NC(=O)c2noc3c2CCCCC3)cc1
AC50 [6]: > 350 µM (inactive)

SMILES: CC(=O)Nc1c(-c2ccc3ccccc3c2)nc2ccccn12
AC50 [6]: 213 µM (active)

SMILES: C#C[C@]1(O)CC[C@H]2[C@@H]3CCC4=Cc5oncc5CC4(C)[C@H]3CCC21C (some centres undefined)
AC50 [1]: 1.58 µM (inconclusive)

SMILES: Cc1cc(CN(C)C(=O)c2ccc3nc(Cc4ccccc4F)oc3c2)on1
AC50 [6]: 68.2 µM (active)

SMILES: [H][C@]12[N@]3CC=C[C@@]1(CC)[C@@H](OC(C)=O)[C@](O)(C(=O)OC)C1N(C)c4cc(OC)c([C@@]5(C(=O)OC)CC6CN(CCc7c5[nH]c5ccccc75)CC(O)(CC)C6)cc4[C@@]12CC3 (some centres undefined)
AC50 [1]: 35.5 µM (inconclusive)

IC50 [8]: 39.7 µM (active)
EC50 [9]: 37.1 µM (active)
SMILES: O=C(O)C(Cc1ccccc1)N1C(=O)c2c(Cl)c(Cl)c(Cl)c(Cl)c2C1=O (centres undefined)

IC50 [10]: > 100 µM (inactive)
SMILES: COc1ccc(CN(C)C(=O)c2cc(S(=O)(=O)NCc3ccccc3)ccc2C)c(OC)c1

IC50 [2]: 10.2 µM (active)
IC50 [11]: > 66 µM (inactive)
IC50 [12]: > 66 µM (inactive)
SMILES: O=S(=O)(/N=C(/Sc1ccccc1)c1ccccc1)c1ccccc1

SMILES: O=[N+]([O-])c1ccccc1N/N=C\c1ccccc1Cl
EC50 [13]: 29.8 µM (inconclusive)
EC50 [14]: 103 µM (active)
EC50 [15]: > 150 µM (not active)
EC50 [16]: > 150 µM (not active)
EC50 [17]: > 133 µM (inactive)

SMILES: C(=NC1CCCCC1)=NC1CCCCC1 [DICYCLOHEXYLCARBODIIMIDE]
AC50 [1]: 70.8 µM (inconclusive)

SMILES: COC(=O)[C@H]1[C@H]2C[C@H]3c4[nH]c5ccccc5c4CCN3C[C@H]2CC[C@@H]1O [RAUWOLSCINE HYDROCHLORIDE]
AC50 [1]: 25.1 µM (inconclusive)
